The results in this text go back to PMC7290078, “Agonist bias and agonist‐dependent antagonism at corticotrophin releasing factor receptors” (Pharmacology Research & Perspectives, 2020).

Assay [1] addresses T1, CRF1 receptor (hCRF1α) (Homo sapiens, UniProt P34998).
T1 construct: host or cells: Cos7 cells, transient transfection (PEI), pcDNA3.0/3.1 vector
T1 sequence (P34998 24-415): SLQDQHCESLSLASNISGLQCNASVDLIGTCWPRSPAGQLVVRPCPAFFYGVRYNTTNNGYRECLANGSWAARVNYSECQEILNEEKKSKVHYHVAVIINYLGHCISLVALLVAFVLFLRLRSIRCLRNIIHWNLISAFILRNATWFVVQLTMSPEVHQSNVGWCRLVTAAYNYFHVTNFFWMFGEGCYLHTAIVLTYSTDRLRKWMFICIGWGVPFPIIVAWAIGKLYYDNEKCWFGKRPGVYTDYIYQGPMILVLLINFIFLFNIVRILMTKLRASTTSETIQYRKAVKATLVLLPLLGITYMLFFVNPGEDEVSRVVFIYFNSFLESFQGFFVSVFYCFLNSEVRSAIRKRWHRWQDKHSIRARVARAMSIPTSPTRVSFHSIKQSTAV
The assay is described as follows: cAMP accumulation (LANCE) in Cos7 cells transfected with hCRF1α, agonist stimulation. The format is cell-based. The source says:
(§1) Plasmids containing hCRF1α and hCRF2α (GenBank accession numbers AY457172 and AY449734) were obtained from the cDNA Resource Centre (Bloomsburg University) and are referred to as CRF1 and CRF2 in this manuscript. Hemagglutinin (HA) epitope‐tagged human Calcitonin (CT) receptor (CT(a) splice variant) and myc‐tagged human RAMP1 were used as described previously. ^27 HA‐tagged human calcitonin receptor‐like receptor (CLR), N‐terminal FLAG‐tagged human RAMP3 and N‐terminal myc‐tagged human RAMP3 were a gift from Professor David Poyner (Aston University) and Professor Patrick Sexton (Monash University), respectively. N‐terminal FLAG‐tagged human RAMP2 was used as described previously. ^28 All receptors and RAMPs were cloned in pcDNA3.0 or pcDNA3.1 plasmid vectors. All plasmid inserts were sequenced at the Centre for Genomics, Proteomics and Metabolomics (University of Auckland) and the sequences were verified prior to use.
Cos7, HEK‐293S, and HEK‐293T cells were cultured as described previously. ^28 , ^29 Cos7 cells were originally supplied by the ATCC to Associate Professor Nigel Birch (University of Auckland). HEK‐293S cells were a gift from Professor David Poyner (Aston University) and HEK‐293T cells a gift from Professor John Taylor (University of Auckland). Briefly, all cell lines were cultured in Dulbecco's Modified Eagle Medium (DMEM) supplemented with 8% heat inactivated fetal bovine serum (FBS) and maintained in a humidified incubator at 37°C with 5% CO2. For transfection, cells were counted (Countess CounterTM; Life Technologies) and plated at a density of 20 000 cells per well in 96‐well plates. The cells were transiently transfected 48 hours prior to assaying using polyethylenimine (PEI), as described previously. ^28 , ^29 In all experiments a total of 0.25 μg DNA was transfected per well. In the majority of experiments 0.25 μg DNA of receptor‐containing plasmid or the pcDNA3.1 plasmid without an insert was used. For experiments involving RAMPs, 0.125 μg of receptor DNA and 0.125 μg of RAMP‐containing plasmid DNA were transfected to give a 1:1 ratio of receptor to RAMP. […]
cAMP accumulation in Cos7 cells transfected with hCRF1α or hCRF2α receptors was measured using the LANCE cAMP detection assay kit (PerkinElmer Life and Analytical Sciences) as described previously. ^30 Briefly, culture media was removed and replaced with DMEM containing 0.1% bovine albumin serum (BSA) and 1 mmol/L 3‐isobutyl‐1‐methylxanthine (IBMX) for 30 minutes at 37°C. […] Samples were shaken for 15 minutes before 5 µL cell lysate was transferred to a white 384‐well optiplate and processed for cAMP quantification as described previously. ^31 Samples were read using an Envision plate reader (PerkinElmer). cAMP concentrations were determined from a standard curve generated in duplicate. […]

Assay [2] deals with T1, CRF1 receptor (hCRF1α). The assay is described as follows: IP1 accumulation (IP-one Gq) in Cos7 cells transfected with hCRF1α, agonist stimulation. The assay is classed as cell-based.
Excerpt: as §1, with “N‐terminal FLAG‐tagged human RAMP2 was used as described previously. ^28 All receptors and RAMPs were cloned in pcDNA3.0 or pcDNA3.1 plasmid vectors. All plasmid inserts were sequenced at the Centre for Genomics, Proteomics and Metabolomics (University of Auckland) and the sequences were verified prior to use.” left out
Cos7, HEK‐293S, and HEK‐293T cells were cultured as described previously. ^28 , ^29 Cos7 cells were originally supplied by the ATCC to Associate Professor Nigel Birch (University of Auckland). […] For transfection, cells were counted (Countess CounterTM; Life Technologies) and plated at a density of 20 000 cells per well in 96‐well plates. […]
The IP‐one Gq assay kit (Cisbio) was used to quantify accumulated myo‐inositol‐1‐phosphate (IP1), a by‐product of IP3 produced after receptor‐mediated Gαq activation in Cos7 and HEK‐293S cells. […] Fifteen microliters of sample was then transferred to a 384‐well optiplate and read by an Envision plate reader (PerkinElmer). IP1 concentrations were calculated from a standard curve generated in duplicate. […]

No end group written: not given here.

The term EC50 denotes the concentration at which the effect is half-maximal. As to “DNPSLSIDLTFHLLRTLLELARTQSQRERAEQNRIIFDSV-NH2 [UCN1]”, the EC50 was 0.107 nM in assay [1] (cAMP, hCRF1α, Cos7, 15 min at 37°C, 1 mmol/L IBMX, 1 pmol/L to 1 µmol/L agonist, mean ± SEM, n = 5) and 7.76 nM in assay [2] (IP1, hCRF1α, Cos7, 90 min at 37°C, 50 mmol/L LiCl, 1 pmol/L to 10 µmol/L agonist, mean ± SEM, n = 5).
For the substance “IVLSLDVPIGLLQILLEQARARAAREQATTNARILARVGHC-NH2 (C-terminus assumed) [UCN2]”, the “concentration‐dependent increase in cAMP” value in assay [1] (CRF1 receptor) was “not UCN2 and UCN3 exhibited a concentration‐dependent increase”. Besides, the “concentration‐dependent increase in IP1 accumulation” value in assay [2] (CRF1 receptor) was “not UCN2 and UCN3 exhibited a concentration‐dependent increase”.
